The text below walks through data of patent US20190225650A1, “PEPTIDOMIMETIC MACROCYCLES AND USE THEREOF IN REGULATING HIF1ALPHA” (AILERON THERAPEUTICS, INC., priority 2013, published 2019).

Bridge positions count the residues as written; N and C are the ends. Square brackets hold non-standard residues; d marks the D form. Peptide text beside a SMILES is read from it. R8 = C=CCCCCCC[C@@](C)(N)C(=O)O; S5 = C=CCCC[C@](C)(N)C(=O)O; Nle = CCCC[C@H](N)C(=O)O; Dap = NC[C@H](N)C(=O)O

The test relates to HRE-bla ME-180 cells. In words: Reporter gene assay (HRE-bla ME-180 HIF reporter, GeneBLAzer). It counts as cell-based, human. To be noted: for EC50: 24 hour normoxia. A digest of the protocol: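 A FRET β-lactamase readout of HIF transcription was used. After compound treatment in 0.3% DMSO/media under normoxic conditions, 20 μl of 6× LiveBLAzer-FRET B/G (CCF4-AM) substrate was added. Plates sat 3 hr at room temperature in the dark and were read at 409 Ex/460Em and 409Ex/530Em on a Synergy 2. Inhibition was compared against DMSO vehicle controls, with chetomin as positive control.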
A general note: Reporter assays use an easily measured gene product as a stand-in for the process of interest.

Take `CC[C@H](C)[C@H](NC(=O)[C@H](Cc1ccccc1)NC(C)=O)C(=O)N[C@@H](CC(=O)O)C(=O)N[C@@H](CCC(=O)O)C(=O)N[C@@H](CCC(=O)O)C(=O)N[C@H](C(=O)N[C@@H](CC(C)C)C(=O)N[C@@H](C)C(=O)N[C@@]1(C)CCCC=CCCC[C@@](C)(C(=O)N[C@@H](C)C(=O)N[C@@H](C)C(=O)N[C@@H](CC(C)C)C(=O)N[C@@H](CC(=O)O)C(N)=O)NC(=O)[C@H]([C@@H](C)CC)NC(=O)[C@H](C(C)C)NC(=O)[C@H](CC(C)C)NC1=O)C(C)C` [SP-60] (Ac-FIDEEVLA[S5]LVI[S5]AALD-NH2; staple 9-13): the “18 h Avg % max inhibition at top conc (HIF Rptr-24 hrs normoxia) (μM)” value (“18 h Avg % max inhibition at top conc” for short) is recorded as “+ (<10: +)” and the EC50 was greater than 30 µM.

As for `CCCC[C@H](NC(=O)[C@H](CC(C)C)NC(=O)[C@@H](NC(=O)[C@H](CCC(=O)O)NC(=O)[C@H](CCC(=O)O)NC(=O)[C@H](CC(=O)O)NC(=O)[C@@H](NC(=O)[C@H](CN)NC(C)=O)[C@@H](C)CC)C(C)C)C(=O)N[C@@]1(C)CCCC=CCCC[C@@](C)(C(=O)N[C@@H](CCCC)C(=O)N[C@@H](C)C(=O)N[C@@H](CC(C)C)C(=O)N[C@@H](CC(=O)O)C(=O)N[C@@H](CCCNC(=N)N)C(=O)N[C@H](C(N)=O)[C@@H](C)CC)NC(=O)[C@H]([C@@H](C)CC)NC(=O)[C@H](C(C)C)NC(=O)[C@H](CC(C)C)NC1=O` [SP-61] (Ac-[Dap]IDEEVL[Nle][S5]LVI[S5][Nle]ALDRI-NH2; staple 9-13), the “18 h Avg % max inhibition at top conc” value is reported as “+ (<10: +)” and the EC50 was greater than 30 µM.

Take `CCCC[C@H](NC(=O)[C@H](CC(C)C)NC(=O)[C@@H](NC(=O)[C@H](CCC(=O)O)NC(=O)[C@H](CCC(=O)O)NC(=O)[C@H](CN)NC(=O)[C@@H](NC(=O)[C@H](Cc1ccccc1)NC(C)=O)[C@@H](C)CC)C(C)C)C(=O)N[C@@]1(C)CCCC=CCCC[C@@](C)(C(=O)N[C@@H](CCCC)C(=O)N[C@@H](C)C(=O)N[C@@H](CC(C)C)C(=O)N[C@@H](CC(=O)O)C(=O)N[C@@H](CCCNC(=N)N)C(=O)N[C@H](C(N)=O)[C@@H](C)CC)NC(=O)[C@H]([C@@H](C)CC)NC(=O)[C@H](C(C)C)NC(=O)[C@H](CC(C)C)NC1=O` [SP-62] (Ac-FI[Dap]EEVL[Nle][S5]LVI[S5][Nle]ALDRI-NH2; staple 9-13): the “18 h Avg % max inhibition at top conc” value is recorded as “++ (≤10 but <25: ++)” and the EC50 was greater than 30 µM.

With `CCCC[C@H](NC(=O)[C@H](CC(C)C)NC(=O)[C@@H](NC(=O)[C@H](CN)NC(=O)[C@H](CCC(=O)O)NC(=O)[C@H](CC(=O)O)NC(=O)[C@@H](NC(=O)[C@H](Cc1ccccc1)NC(C)=O)[C@@H](C)CC)C(C)C)C(=O)N[C@@]1(C)CCCC=CCCC[C@@](C)(C(=O)N[C@@H](CCCC)C(=O)N[C@@H](C)C(=O)N[C@@H](CC(C)C)C(=O)N[C@@H](CC(=O)O)C(=O)N[C@@H](CCCNC(=N)N)C(=O)N[C@H](C(N)=O)[C@@H](C)CC)NC(=O)[C@H]([C@@H](C)CC)NC(=O)[C@H](C(C)C)NC(=O)[C@H](CC(C)C)NC1=O` [SP-63] (Ac-FIDE[Dap]VL[Nle][S5]LVI[S5][Nle]ALDRI-NH2; staple 9-13), the “18 h Avg % max inhibition at top conc” value was “+++ (≤25 but <50: +++)” and the EC50 was 5 to 15 µM.

Regarding `CCCC[C@H](NC(=O)[C@H](CC(C)C)NC(=O)[C@H](CN)NC(=O)[C@H](CCC(=O)O)NC(=O)[C@H](CCC(=O)O)NC(=O)[C@H](CC(=O)O)NC(=O)[C@@H](NC(=O)[C@H](Cc1ccccc1)NC(C)=O)[C@@H](C)CC)C(=O)N[C@@]1(C)CCCC=CCCC[C@@](C)(C(=O)N[C@@H](CCCC)C(=O)N[C@@H](C)C(=O)N[C@@H](CC(C)C)C(=O)N[C@@H](CC(=O)O)C(=O)N[C@@H](CCCNC(=N)N)C(=O)N[C@H](C(N)=O)[C@@H](C)CC)NC(=O)[C@H]([C@@H](C)CC)NC(=O)[C@H](C(C)C)NC(=O)[C@H](CC(C)C)NC1=O` [SP-64] (Ac-FIDEE[Dap]L[Nle][S5]LVI[S5][Nle]ALDRI-NH2; staple 9-13), the “18 h Avg % max inhibition at top conc” value is listed as “+ (<10: +)” and the concentration giving a half-maximal response (EC50) was greater than 30 µM.

Turning to `CCCC[C@H](NC(=O)[C@H](CC(C)C)NC(=O)[C@@H](NC(=O)[C@H](CCC(=O)O)NC(=O)[C@H](CCC(=O)O)NC(=O)[C@H](CC(=O)O)NC(=O)[C@@H](NC(=O)[C@H](Cc1ccccc1)NC(C)=O)[C@@H](C)CC)C(C)C)C(=O)N[C@@]1(C)CCCC=CCCC[C@@](C)(C(=O)N[C@@H](CCCC)C(=O)N[C@@H](C)C(=O)N[C@@H](CC(C)C)C(=O)N[C@@H](CC(=O)O)C(=O)N[C@@H](CCCNC(=N)N)C(=O)N[C@H](C(N)=O)[C@@H](C)CC)NC(=O)[C@H](CN)NC(=O)[C@H](C(C)C)NC(=O)[C@H](CC(C)C)NC1=O` [SP-65] (Ac-FIDEEVL[Nle][S5]LV[Dap][S5][Nle]ALDRI-NH2; staple 9-13), the “18 h Avg % max inhibition at top conc” value is “+ (<10: +)” and the concentration giving a half-maximal response (EC50) is greater than 30 µM.

Take `CCCC[C@H](NC(=O)[C@H](CC(C)C)NC(=O)[C@@H](NC(=O)[C@H](CCC(=O)O)NC(=O)[C@H](CCC(=O)O)NC(=O)[C@H](CC(=O)O)NC(=O)[C@@H](NC(=O)[C@H](Cc1ccccc1)NC(C)=O)[C@@H](C)CC)C(C)C)C(=O)N[C@@]1(C)CCCC=CCCC[C@@](C)(C(=O)N[C@@H](CN)C(=O)N[C@@H](C)C(=O)N[C@@H](CC(C)C)C(=O)N[C@@H](CC(=O)O)C(=O)N[C@@H](CCCNC(=N)N)C(=O)N[C@H](C(N)=O)[C@@H](C)CC)NC(=O)[C@H]([C@@H](C)CC)NC(=O)[C@H](C(C)C)NC(=O)[C@H](CC(C)C)NC1=O` [SP-66] (Ac-FIDEEVL[Nle][S5]LVI[S5][Dap]ALDRI-NH2; staple 9-13): the “18 h Avg % max inhibition at top conc” value was “++ (≤10 but <25: ++)” and the EC50 is greater than 30 µM.

`CCCC[C@H](NC(=O)[C@H](CC(C)C)NC(=O)[C@@H](NC(=O)[C@H](CCC(N)=O)NC(=O)[C@H](CCC(=O)O)NC(=O)[C@H](CC(=O)O)NC(=O)[C@@H](NC(=O)[C@H](Cc1ccccc1)NC(C)=O)[C@@H](C)CC)C(C)C)C(=O)N[C@@]1(C)CCCC=CCCC[C@@](C)(C(=O)N[C@@H](CCCC)C(=O)N[C@@H](C)C(=O)N[C@@H](CC(C)C)C(=O)N[C@@H](CC(=O)O)C(=O)N[C@@H](CCCNC(=N)N)C(=O)N[C@H](C(N)=O)[C@@H](C)CC)NC(=O)[C@H]([C@@H](C)CC)NC(=O)[C@H](C(C)C)NC(=O)[C@H](CC(C)C)NC1=O` [SP-69] (Ac-FIDEQVL[Nle][S5]LVI[S5][Nle]ALDRI-NH2; staple 9-13): the “18 h Avg % max inhibition at top conc” value is recorded as “++++ (≥50: ++++)” and the EC50 is 5 to 15 µM.

As for `CC[C@H](C)[C@H](NC(=O)[C@H](CCCNC(=N)N)NC(=O)[C@H](CC(=O)O)NC(=O)[C@H](CC(C)C)NC(=O)[C@H](C)NC(=O)[C@H](C)NC(=O)[C@]1(C)CCCC=CCCC[C@](C)(NC(=O)[C@H](C)NC(=O)[C@H](CC(C)C)NC(=O)[C@@H](NC(=O)[C@H](CCC(N)=O)NC(=O)[C@H](CCC(=O)O)NC(=O)[C@H](CC(=O)O)NC(=O)[C@@H](NC(=O)[C@H](Cc2ccccc2)NC(C)=O)[C@@H](C)CC)C(C)C)C(=O)N[C@@H](CC(C)C)C(=O)N[C@@H](C(C)C)C(=O)N[C@@H]([C@@H](C)CC)C(=O)N1)C(N)=O` [SP-70] (Ac-FIDEQVLA[S5]LVI[S5]AALDRI-NH2; staple 9-13), the “18 h Avg % max inhibition at top conc” value is “+++ (≤25 but <50: +++)” and the EC50 lay in the range of 5 to 15 µM.

As for `CC[C@H](C)[C@H](NC(=O)[C@H](CCCNC(=N)N)NC(=O)[C@H](CC(=O)O)NC(=O)[C@H](CC(C)C)NC(=O)CNC(=O)[C@H](CCSC)NC(=O)[C@H](CCC(=O)O)NC(=O)[C@@H](NC(=O)[C@@H](NC(=O)[C@H](CC(C)C)NC(=O)[C@H](CO)NC(=O)[C@]1(C)CCCC=CCCC[C@](C)(NC(=O)[C@H](CC(=O)O)NC(=O)[C@@H](NC(=O)[C@H](Cc2ccccc2)NC(C)=O)[C@@H](C)CC)C(=O)N[C@@H](CCC(=O)O)C(=O)N[C@@H](C(C)C)C(=O)N[C@@H](CC(C)C)C(=O)N1)C(C)C)[C@@H](C)CC)C(=O)N[C@@H](CCCCN)C(=O)N[C@@H](CCC(=O)O)C(=O)N[C@@H](CC(C)C)C(=O)N1CCC[C@H]1C(=O)N[C@@H](CCC(=O)O)C(=O)N[C@@H](CC(C)C)C(=O)N[C@@H](Cc1c[nH]c2ccccc12)C(=O)N[C@@H](CC(C)C)C(N)=O` [SP-76] (Ac-FID[S5]EVL[S5]SLVIEMGLDRIKELPELWL-NH2; staple 4-8), the “18 h Avg % max inhibition at top conc” value was “+ (<10: +)” and the EC50 was greater than 30 µM.

On to `CC[C@H](C)[C@H](NC(=O)[C@H](Cc1ccccc1)NC(C)=O)C(=O)N[C@@H](CC(=O)O)C(=O)N[C@@H](CCC(=O)O)C(=O)N[C@]1(C)CCCCCCC=CCCC[C@@](C)(C(=O)N[C@@H](CCC(=O)O)C(=O)N[C@@H](CCSC)C(=O)NCC(=O)N[C@@H](CC(C)C)C(=O)N[C@@H](CC(=O)O)C(=O)N[C@@H](CCCNC(=N)N)C(=O)N[C@H](C(=O)N[C@@H](CCCCN)C(=O)N[C@@H](CCC(=O)O)C(=O)N[C@@H](CC(C)C)C(=O)N2CCC[C@H]2C(=O)N[C@@H](CCC(=O)O)C(=O)N[C@@H](CC(C)C)C(=O)N[C@@H](Cc2c[nH]c3ccccc23)C(=O)N[C@@H](CC(C)C)C(N)=O)[C@@H](C)CC)NC(=O)[C@H](C(C)C)NC(=O)[C@H](CC(C)C)NC(=O)[C@H](CO)NC(=O)[C@H](CCSC)NC(=O)[C@H](CC(C)C)NC(=O)[C@H](C(C)C)NC1=O` [SP-82] (Ac-FIDE[R8]VLMSLV[S5]EMGLDRIKELPELWL-NH2; staple 5-12), for which the “18 h Avg % max inhibition at top conc” value is listed as “+ (<10: +)” and the EC50 was greater than 30 µM.

The EC50 is the concentration giving half of the maximal effect.
